The compounds below were run against STAT3 (Homo sapiens, UniProt P40763) (assay: STAT3 HiBiT degradation assay in transfected A549 cells). Conditions: A549, 24 h; read-out: STAT3 HiBiT A549 degradation 24 h: Average external-Abs DC50.
Assay type: cell-based
Set-up: expressed in transfected cells; host or cells: A549
Summary of the method: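 Transfected A549 cells (~2000/well) plated 24 h, then treated 24 h at 37 °C, 5% CO2 with a 3-fold, 10-point compound dilution. HiBiT lytic luminescence read after 10 min at room temperature; remaining STAT3 normalized to negative and positive controls, four-parameter fit. DC50 binned A <0.01, B 0.01–0.1, C 0.1–1.0, D >1.0 µM.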

STAT3, sequence (P40763 whole entry): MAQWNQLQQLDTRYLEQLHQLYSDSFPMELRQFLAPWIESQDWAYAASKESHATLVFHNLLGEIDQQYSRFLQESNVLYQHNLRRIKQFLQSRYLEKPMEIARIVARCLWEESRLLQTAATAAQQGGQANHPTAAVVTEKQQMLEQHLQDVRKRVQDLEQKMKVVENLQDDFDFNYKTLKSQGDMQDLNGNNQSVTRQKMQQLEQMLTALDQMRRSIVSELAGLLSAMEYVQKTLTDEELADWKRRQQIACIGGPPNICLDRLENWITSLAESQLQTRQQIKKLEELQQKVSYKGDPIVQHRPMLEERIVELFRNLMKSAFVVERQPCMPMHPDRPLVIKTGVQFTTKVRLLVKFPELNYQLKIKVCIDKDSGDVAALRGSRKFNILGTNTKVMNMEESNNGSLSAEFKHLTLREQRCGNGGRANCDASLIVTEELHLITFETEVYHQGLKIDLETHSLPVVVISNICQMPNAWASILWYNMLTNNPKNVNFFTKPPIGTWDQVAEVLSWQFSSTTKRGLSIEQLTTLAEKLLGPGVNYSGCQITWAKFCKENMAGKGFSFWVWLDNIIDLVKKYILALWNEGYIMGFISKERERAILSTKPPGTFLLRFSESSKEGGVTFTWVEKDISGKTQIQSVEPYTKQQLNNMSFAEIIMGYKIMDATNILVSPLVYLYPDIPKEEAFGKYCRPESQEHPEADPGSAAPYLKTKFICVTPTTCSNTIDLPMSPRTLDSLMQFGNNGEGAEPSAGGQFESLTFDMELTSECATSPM

Row | SMILES | DC50
1 | Cc1ncsc1-c1ccc(CNC(=O)[C@@H]2C[C@@H](O)CC2C(=O)[C@@H](NC(=O)CCc2ccc(CCCOC[C@H](CCC(N)=O)NC(=O)[C@@H]3Cc4cccc5c4N3C(=O)[C@@H](NC(=O)c3cc4cc(C(=O)P(=O)(O)O)ccc4[nH]3)CC5)cc2)C(C)(C)C)cc1 (stereo partly drawn) [Compound I-170, diammonium 2-[[(2S,11S)-2-[[(2S)-4-carbamoyl-1-[3-[4-(2-[[(2S)-1-[(2S,4R)-4-hydroxy-2-([[4-(4-methyl-1,3-thiazo1-5-yl)phenyl]methyl]carbamoyl)pyrrolidin-1-yl]-3,3-dimethyl-1-oxobutan-2-yl]carbamoyl]ethyl)phenyl]propoxy]butan-2-yl]carbamoyl]-12-oxo-1-azatricyclo[6.4.1.0^[4,13]]trideca-4(13),5,7-trien-11-yl]carbamoyl]-1H-indole-5-carbonylphosphonate] | > 1000 nM
2 | Cc1ncsc1-c1ccc(CNC(=O)[C@@H]2C[C@@H](O)CC2C(=O)[C@@H](NC(=O)CCCCC/C=C\COC[C@H](CCC(N)=O)NC(=O)[C@@H]2Cc3cccc4c3N2C(=O)[C@@H](NC(=O)c2cc3cc(C(=O)P(=O)(O)O)ccc3[nH]2)CC4)C(C)(C)C)cc1 (stereo partly drawn) [Compound I-171] | 100 to 1000 nM
3 | CC(=O)N1CC[C@H]2CC[C@@H](C(=O)N[C@@H](CCC(N)=O)C(=O)NCCCCCCCC(=O)N[C@H](C(=O)N3C[C@H](O)C[C@H]3C(=O)NCc3ccc(-c4scnc4C)cc3)C(C)(C)C)N2C(=O)[C@@H](NC(=O)c2cc3cc(C(=O)P(=O)(O)O)ccc3[nH]2)C1 [Compound I-172, 2-[[(5S,8S,10aR)-3-acetyl-8-[[(1S)-3-carbamoyl-1-[(7-[[(2S)-1-[(2S,4R)-4-hydroxy-2-([[4-(4-methyl-1,3-thiazol-5-yl)phenyl]methyl]carbamoyl)pyrrolidin-1-yl]-3,3-dimethyl-1-oxobutan-2-yl]carbamoyl]heptyl)carbamoyl]propyl]carbamoyl]-6-oxo-octahydropyrrolo[1,2-a][1,5]diazocin-5-yl]carbamoyl]-1H-indole-5-carbonylphosphonic acid] | > 1000 nM
4 | CC(=O)N1CC[C@H]2CC[C@@H](C(=O)N[C@@H](CCC(N)=O)C(=O)NCCCCCCCCC(=O)N[C@H](C(=O)N3C[C@H](O)C[C@H]3C(=O)NCc3ccc(-c4scnc4C)cc3)C(C)(C)C)N2C(=O)[C@@H](NC(=O)c2cc3cc(C(=O)P(=O)(O)O)ccc3[nH]2)C1 [Compound I-173] | > 1000 nM
5 | Cn1c(=O)n(C2CCC(=O)NC2=O)c2ccc(N3CCN(CCC(=O)N4CC[C@H]5CC[C@@H](C(=O)N[C@@H](CCC(N)=O)C(=O)NC(c6ccccc6)c6ccccc6)N5C(=O)[C@@H](NC(=O)c5cc6cc(C(=O)P(=O)(O)O)ccc6[nH]5)C4)CC3)cc21 (stereo partly drawn) [Compound I-175, 2-[[(5S,8S,10aR)-8-[[(1S)-3-carbamoyl-1-(diphenylmethylcarbamoyl)propyl]carbamoyl]-3-(3-[4-[1-(2,6-dioxopiperidin-3-yl)-3-methyl-2-oxo-1,3-benzodiazol-5-yl]piperazin-1-yl]propanoyl)-6-oxo-octahydropyrrolo[1,2-a][1,5]diazocin-5-yl]carbamoyl]-1H-indole-5-carbonylphosphonic acid] | 100 to 1000 nM
6 | Cc1ncsc1-c1ccc(CNC(=O)C2C[C@@H](O)CN2C(=O)[C@@H](NC(=O)CC2CC(c3ccc(CO[C@H](C)[C@H](CCC(N)=O)NC(=O)[C@@H]4Cc5cccc6c5N4C(=O)[C@@H](NC(=O)c4cc5cc(C(=O)P(=O)(O)O)ccc5[nH]4)CC6)cc3)C2)C(C)(C)C)cc1 (stereo partly drawn) [Compound I-176] | > 1000 nM
7 | Cn1c(=O)n(C2CCC(=O)NC2=O)c2ccc(C3CCN(CCC(=O)N4CC[C@H]5CC[C@@H](C(=O)N[C@@H](CCC(N)=O)C(=O)NC(c6ccccc6)c6ccccc6)N5C(=O)[C@@H](NC(=O)c5cc6cc(C(=O)P(=O)(O)O)ccc6[nH]5)C4)CC3)cc21 (stereo partly drawn) [Compound I-177, 2-[[(5S,8S,10aR)-8-[[(1S)-3-carbamoyl-1-(diphenylmethylcarbamoyl)propyl]carbamoyl]-3-(3-[4-[1-(2,6-dioxopiperidin-3-yl)-3-methyl-2-oxo-1,3-benzodiazol-5-yl]piperidin-1-yl]propanoyl)-6-oxo-octahydropyrrolo[1,2-a][1,5]diazocin-5-yl]carbamoyl]-1H-indole-5-carbonylphosphonic acid] | 100 to 1000 nM
8 | Cc1ncsc1-c1ccc(CNC(=O)[C@@H]2C[C@@H](O)CN2C(=O)[C@@H](NC(=O)CN2CCC(Cc3ccc(CO[C@H](C)[C@H](CCC(N)=O)NC(=O)[C@@H]4Cc5cccc6c5N4C(=O)[C@@H](NC(=O)c4cc5cc(C(=O)P(=O)(O)O)ccc5[nH]4)CC6)cc3)CC2)C(C)(C)C)cc1 [Compound I-178] | > 1000 nM
9 | Cc1ncsc1-c1ccc(CNC(=O)[C@@H]2C[C@@H](O)CN2C(=O)[C@@H](NC(=O)CCCCc2ccc(CN(C)C[C@H](CCC(N)=O)NC(=O)[C@@H]3Cc4cccc5c4N3C(=O)[C@@H](NC(=O)c3cc4cc(C(=O)P(=O)(O)O)ccc4[nH]3)CC5)cc2)C(C)(C)C)cc1 [Compound I-179, 2-[[(2S,11S)-2-[[(2S)-4-carbamoyl-1-([[4-(4-[[(2S)-1-[(2S,4R)-4-hydroxy-2-([[4-(4-methyl-1,3-thiazol-5-yl)phenyl]methyl]carbamoyl)pyrrolidin-1-yl]-3,3-dimethyl-1-oxobutan-2-yl]carbamoyl]butyl)phenyl]methyl](methyl)amino)butan-2-yl]carbamoyl]-12-oxo-1-azatricyclo[6.4.1.0^[4,13]]trideca-4(13),5,7-trien-11-yl]carbamoyl]-1H-indole-5-carbonylphosphonic acid] | 100 to 1000 nM
10 | Cn1c(=O)n(C2CCC(=O)NC2=O)c2ccc(CCCCCCC(=O)N3CC[C@H]4CC[C@@H](C(=O)N[C@H](CCC(N)=O)C(=O)NC(c5ccccc5)c5ccccc5)N4C(=O)[C@@H](NC(=O)c4cc5cc(C(=O)P(=O)(O)O)ccc5[nH]4)C3)cc21 (stereo partly drawn) [Compound I-181, 2-[[(5S,8S,10aR)-8-[[(1R)-3-carbamoyl-1-(diphenylmethylcarbamoyl)propyl]carbamoyl]-3-[7-[1-(2,6-dioxopiperidin-3-yl)-3-methyl-2-oxo-1,3-benzodiazol-5-yl]heptanoyl]-6-oxo-octahydropyrrolo[1,2-a][1,5]diazocin-5-yl]carbamoyl]-1H-indole-5-carbonylphosphonic acid] | > 1000 nM
11 | Cn1c(=O)n(C2CCC(=O)NC2=O)c2ccc(CCCCCCCc3cc4c5c(c3)C[C@@H](C(=O)N[C@@H](CCC(N)=O)C(=O)NC(c3ccccc3)c3ccccc3)N5C(=O)[C@@H](NC(=O)c3cc5cc(C(=O)P(=O)(O)O)ccc5[nH]3)CC4)cc21 (stereo partly drawn) [Compound I-182, 2-[[(2S,11S)-2-[[(1S)-3-carbamoyl-1-(diphenylmethylcarbamoyl)propyl]carbamoyl]-6-[7-[1-(2,6-dioxopiperidin-3-yl)-3-methyl-2-oxo-1,3-benzodiazol-5-yl]heptyl]-12-oxo-1-azatricyclo[6.4.1.0^[4,13]]trideca-4(13),5,7-trien-11-yl]carbamoyl]-1H-indole-5-carbonylphosphonic acid] | 100 to 1000 nM
12 | C[C@@H](OCc1ccccc1)[C@H](CCC(N)=O)NC(=O)[C@@H]1CC[C@@H]2CCN(C(=O)CCCCCCc3ccc4c(c3)n(C)c(=O)n4C3CCC(=O)NC3=O)C[C@H](NC(=O)c3cc4cc(C(=O)P(=O)(O)O)ccc4[nH]3)C(=O)N21 (stereo partly drawn) [Compound I-184, 2-[[(5S8S,10aR)-8-[[(3S,4R)-4-(benzyloxy)-1-carbamoylpentan-3-yl]carbamoyl]-3-[7-[1-(2,6-dioxopiperidin-3-yl)-3-methyl-2-oxo-1,3-benzodiazol-5-yl]heptanoyl]-6-oxo-octahydropyrrolo[1,2-a][1,5]diazocin-5-yl]carbamoyl]-1H-indole-5-carbonylphosphonic acid] | 100 to 1000 nM
13 | Cc1ncsc1-c1ccc([C@H](C)NC(=O)[C@@H]2C[C@@H](O)CN2C(=O)[C@@H](NC(=O)CCCc2cccc(OC[C@@H](NC(=O)[C@@H]3Cc4cccc5c4N3C(=O)[C@@H](NC(=O)c3cc4cc(C(=O)P(=O)(O)O)ccc4[nH]3)CC5)C(N)=O)c2)C(C)(C)C)cc1 [Compound I-194, diammonium 2-[[(2S,11S)-2-[[(2S)-4-carbamoyl-1-[3-(3-[[(2S)-1-[(2S,4R)-4-hydroxy-2-[[(1S)-1-[4-(4-methyl-1,3-thiazol-5-yl)phenyl]ethyl]carbamoyl]pyrrolidin-1-yl]-3,3-dimethyl-1-oxobutan-2-yl]carbamoyl]propyl)phenoxy]butan-2-yl]carbamoyl]-12-oxo-1-azatricyclo[6.4.1.0^[4,13]]trideca-4(13),5,7-trien-11-yl]carbamoyl]-1H-indole-5-carbonylphosphonate] | 10 to 100 nM
14 | Cn1c(=O)n(C2CCC(=O)NC2=O)c2ccc(C[C@H]3CC[C@@H](CC(=O)N4CC[C@H]5CC[C@@H](C(=O)N[C@@H](CCC(N)=O)C(=O)NCc6cccc7ccccc67)N5C(=O)[C@@H](NC(=O)c5cc6cc(C(=O)P(=O)(O)O)ccc6[nH]5)C4)CC3)cc21 (stereo partly drawn) [Compound I-197, 2-[[(5S,8S,10aR)-8-[[(1S)-3-carbamoyl-1-[(naphthalen-1-ylmethyl)carbamoyl]propyl]carbamoyl]-6-oxo-3-[2-[(1S,4S)-4-[[1-(2,6-dioxopiperidin-3-yl)-3-methyl-2-oxo-1,3-benzodiazol-5-yl]methyl]cyclohexyl]acetyl]-octahydropyrrolo[1,2-a][1,5]diazocin-5-yl]carbamoyl]-1H-indole-5-carbonylphosphonic acid] | 100 to 1000 nM

Same assay, conditions: read-out: STAT3 HiBiT A549 degradation 24 h: Average external-Abs DC50; A549, 24 h

Row | SMILES | DC50
15 | C[C@@H](OCc1ccc(Br)cc1)[C@H](CCC(N)=O)NC(=O)[C@@H]1CC[C@@H]2CCN(C(=O)CCCCCCc3ccc4c(c3)n(C)c(=O)n4C3CCC(=O)NC3=O)C[C@H](NC(=O)c3cc4cc(C(=O)P(=O)(O)O)ccc4[nH]3)C(=O)N21 (stereo partly drawn) [Compound I-183, 2-[[(5S,8S,10aR)-8-[[(3S,4R)-4-[(4-bromophenyl)methoxy]-1-carbamoylpentan-3-yl]carbamoyl]-3-[7-[1-(2,6-dioxopiperidin-3-yl)-3-methyl-2-oxo-1,3-benzodiazol-5-yl]heptanoyl]-6-oxo-octahydropyrrolo[1,2-a][1,5]diazocin-5-yl]carbamoyl]-1H-indole-5-carbonylphosphonic acid] | 100 to 1000 nM
